Results taken from US11446269B2, “Methods of reducing or preventing oxidation of small dense LDL or membrane polyunsaturated fatty acids” (Amarin Pharmaceuticals Ireland Limited, priority 2014, dated 2022).

Key:
[1] = Lipid hydroperoxide (LOOH) formation in cholesterol-enriched DLPC model membranes under autoxidation (Example 3); type: biochemical; details: EPA:lipid 1:30, C/P 0.6:1, autoxidation 37° C. 72 hours, vs untreated controls
Protocol: Levels of lipid hydroperoxides were also measured in cholesterol-enriched membrane prepared in the absence of EPA as a control. […] CHOD-iodide color reagent (stock) was prepared according to a procedure modified from El-Saadani et […], Goher […], Jurgens G. A spectrophotometric assay for lipid peroxides in serum lipoproteins using commercially available reagent. J. Lipid. […] Membrane samples consisting of DLPC±cholesterol were prepared as follows. Component lipids (in chloroform) were transferred to 13×100 mm test tubes and shell-dried under a steady stream of nitrogen gas while vortex mixing. The lipid was co-dried with EPA. Residual solvent was removed by drying for a minimum of 3 h under vacuum. After desiccation, each membrane sample was resuspended in diffraction buffer (0.5 mM HEPES, 154 mM NaCl, pH 7.3) to yield a final phospholipid concentration of 1.0 mg/mL. Multilamellar vesicles (MLV) were formed by vortex mixing for 3 minutes at ambient temperature. […] Absorbances were measured against a CHOD blank at 365 nm using a Beckman DU-640 spectrophotometer. The CHOD colorimetric assay is based on the oxidation of iodide (I^-) by lipid hydroperoxides (LOOH) and proceeds according to the following reaction scheme: […]3^- The quantity of triiodide anion (I3^-) liberated in this reaction is directly proportional to the amount of lipid hydroperoxides present in the membrane sample.

[2] = Glucose-induced membrane lipid peroxidation (LOOH, CHOD-iodide assay) in DLPC/cholesterol multilamellar vesicles (Example 4); type: biochemical
Protocol: Vitamin E (α-tocopherol) was also purchased from Sigma-Aldrich and prepared in ethanol at 1.0 mM (ε=3.06×10^4 M^−1 cm^−1 at 294 nm) just prior to experimental use. […] All test compounds were further diluted in ethanol or aqueous buffer as needed. Glucose was prepared in saline buffer (0.5 mM HEPES, 154 mM NaCl, pH 7.3) at 11.0 mM (200 mg/dL). CHOD-iodide color reagent (stock) was prepared, with slight modification, as described by from El-Saadani et al. (J. […] Samples were shell-dried under nitrogen gas and placed under vacuum for 1 h to remove residual solvent. […] Lipid suspensions were then vortexed for 3 min at ambient temperature to form MLVs. All MLV samples were subjected to time-dependent autoxidation by incubating at 37° C. in an uncovered, shaking water bath. This method allows lipid peroxidation to occur gradually without requiring the use of exogenous initiators. Small aliquots (5-100 μL) of each sample were removed, immediately following MLV preparation (0 hour) and after exposing samples to oxidative conditions for 72 or 96 hour, and combined with 1.0 mL of activated CHOD-iodide color reagent. Aliquot volume was reduced with each successive time point to ensure that spectrophotometric readings were within the optimal adsorption range. Test samples were covered and incubated in darkness at room temperature for at least 4 hr. Sample absorbances were then measured against a CHOD blank at 365 nm using a Beckman DU-640 spectrophotometer. The CHOD colorimetric assay is based on the oxidation of iodide (I^−) by lipid hydroperoxide (LOOH) to form triiodide (I3^−), the quantity of which is directly proportional to the amount of LOOH present in the lipid sample. The molar absorptivity (c) of I3^− is 2.46×10^4 M^−1 cm^−1 at 365 nm. […] The concentration of glucose selected was consistent with previous experimental studies of hyperglycemia under controlled laboratory conditions or observed in well-defined animal models of Type II diabetes following a glucose challenge. […] Values in FIG. 1 are mean±S.D. (N=6). EPA inhibited the peroxidative effects of glucose by 88% and 86% at 72 and 96 hours, respectively, which was highly significant (p<0.001) as compared to glucose treatment alone. […] Overall ANOVA—0 hour data: p=0.6655, F=0.4185; 72 hour data: p<0.0001, F=428.72; 96 hour data: p<0.0001, F=322.01.

Structure (SMILES): CC/C=C\C/C=C\C/C=C\C/C=C\C/C=C\CCCC(=O)O [EPA, cis-5,8,11,14,17-eicosapentaenoic acid]
- reduction of LOOH levels [1]: greater than 90%
- antioxidant effect on glucose-induced LOOH formation ([2]; 1.0 μM, glucose 200 mg/dL, 96 hours): potent antioxidant effects
- effect on LOOH formation / lipid peroxidation ([2]; 72- and 96-hour time points, 1:30 drug-to-phospholipid mole ratio, glucose 200 mg/dL): significantly inhibited LOOH formation
- effect on membrane LOOH formation ([2]; tested at 1.0 and 5.0 μM, glucose-treated): inhibit membrane LOOH formation in a dose-dependent manner
